Results: article PMC6792352, “Limited Chemical Structural Diversity Found to Modulate Thyroid Hormone Receptor in the Tox21 Chemical Library” (Environmental Health Perspectives, 2019)
Like-named read-outs stand apart in the source and are kept apart here.

Experiments:
[1] = tested on: thyroid hormone receptor (TR); assay: Classification of TR actives across characterization assays (TR-Ag / RXR-Ag; TR model binary)
How it was run: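 Pharmaceuticals excluded; actives called from GH3-TRE qHTS (agonist, antagonist, viability) on 8,305 chemicals. Confirmation of 84 selected chemicals used GH3-TRE-Ag, mammalian one-hybrid TRβ and RXRα UAS-bla HEK 293T specificity screens, parental HEK293T viability, and two TR:coactivator recruitment assays.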

[2] = tested on: Tox21 cell viability assays (different cell types); assay: Global cytotoxicity: eighteen Tox21 cell viability assays; assay type: cell-based
[3] = as above; assay type: cell-based
human RXRα = target: T1, human RXRα (Homo sapiens, UniProt P19793); assay: RXRa-bla-Ag mammalian one-hybrid beta-lactamase assay (TOX21_TR_RXR_BLA_Agonist_Followup_ratio, aeid 2253); assay type: cell-based
T1 construct: host or cells: GeneBLAzer UAS-bla HEK 293T
T1 sequence (P19793 227-458 limits assumed): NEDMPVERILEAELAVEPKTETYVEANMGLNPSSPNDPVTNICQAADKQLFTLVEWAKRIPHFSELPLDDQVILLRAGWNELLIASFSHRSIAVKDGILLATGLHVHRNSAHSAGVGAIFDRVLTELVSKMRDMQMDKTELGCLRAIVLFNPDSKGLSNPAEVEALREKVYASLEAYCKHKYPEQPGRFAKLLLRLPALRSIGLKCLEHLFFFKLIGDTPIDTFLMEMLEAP

[4] = tested on: thyroid hormone receptor (endogenous TRα and TRβ); assay: GH3-TRE-Ag primary qHTS, luciferase reporter, agonist mode (TOX21_TR_LUC_GH3_Agonist, aeid 803); assay type: cell-based, rat
[5] = tested on: thyroid hormone receptor (endogenous TRα and TRβ); assay: GH3-TRE-Ag-Followup confirmation (TOX21_TR_LUC_GH3_Agonist_Followup, aeid 2226); assay type: cell-based, rat
[6] = target: T2, human TRβ ligand-binding domain (Homo sapiens, UniProt P10828); assay: TRb-bla agonist mammalian one-hybrid beta-lactamase assay (TOX21_TRB_BLA_Agonist_Followup_ratio, aeid 2236); assay type: cell-based; design: host or cells: GeneBLAzer UAS-bla HEK 293T
T2 sequence (P10828 217-461 limits assumed): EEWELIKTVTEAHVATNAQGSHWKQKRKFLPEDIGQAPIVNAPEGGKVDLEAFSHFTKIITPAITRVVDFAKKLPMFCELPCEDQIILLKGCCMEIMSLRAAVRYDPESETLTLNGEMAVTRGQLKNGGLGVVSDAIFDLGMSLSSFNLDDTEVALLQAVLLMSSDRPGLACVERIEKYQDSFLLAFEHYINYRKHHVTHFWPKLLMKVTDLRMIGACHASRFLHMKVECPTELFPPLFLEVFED

[7] = target: T3, TRα ligand-binding domain (Homo sapiens, UniProt P10827); assay: TRa-coa LanthaScreen TR-FRET coactivator (SRC-2 peptide) recruitment, agonist (TOX21_TRA_COA_Agonist_Followup_ratio, aeid 2230); assay type: biochemical
T3 construct: the receptor LBDs expressed as glutathione S-transferase (GST) fusion proteins; purchased

[8] = target: T2, human TRβ ligand-binding domain; assay: TRb-coa LanthaScreen TR-FRET coactivator (SRC-2 peptide) recruitment, agonist (TOX21_TRB_COA_Agonist_Followup_ratio, aeid 2244); assay type: biochemical; design: host or cells: GeneBLAzer UAS-bla HEK 293T

T3 sequence (P10827 163-410 isoform P10827-2 limits assumed, other chains not shown): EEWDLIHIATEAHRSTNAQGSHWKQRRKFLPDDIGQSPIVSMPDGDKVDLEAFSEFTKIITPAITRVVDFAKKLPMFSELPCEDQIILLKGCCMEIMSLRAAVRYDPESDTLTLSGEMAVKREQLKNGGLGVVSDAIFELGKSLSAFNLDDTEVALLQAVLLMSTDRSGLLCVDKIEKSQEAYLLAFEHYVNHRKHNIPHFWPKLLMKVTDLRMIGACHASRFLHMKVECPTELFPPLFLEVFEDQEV

With `CSCC[C@H](NC(=O)[C@H](Cc1ccc(OS(=O)(=O)O)cc1)NC(=O)[C@@H](N)CC(=O)O)C(=O)NCC(=O)N[C@@H](Cc1c[nH]c2ccccc12)C(=O)N[C@@H](CCSC)C(=O)N[C@@H](CC(=O)O)C(=O)N[C@@H](Cc1ccccc1)C(N)=O` [Sincalide, reference compound] the “Categorization Code” value ([1]; TR agonist characterization) was “RXR-Ag”, the Classification ([1]; TR-Ag = TR agonist, RXR-Ag = RXR agonist) was “RXR-Ag” and the TR_LUC_GH3_Antagonist_viability hitc (GH3-TRE-Luc cell line) was 0. The “GLOBAL CYTOTOXICITY cytotox.median” value [2] was >92, the “GLOBAL CYTOTOXICITY cytotox.number_Active” value [2] was 0 and the AC50 [3] was > 92 µM. The AC50 (human RXRα; HEK 293T one-hybrid, agonist mode, inactive set to 1,000, read-out: RXRa-bla-Ag AC50) was 10.5 µM, the tr-followup-rxr-bla-agonist-1 hitc (human RXRα; hit call from tcpl) was 1 and the Emax (human RXRα; read-out: EMax (% of Control) tr-followup-rxr-bla-agonist-1) was 36.1%. The “EMax (% of Control) gh3-tre-agonist” value [4] was 80.1 % of Control, the “GH3-TRE-Ag AC50 hitc” value ([4]; hit call from tcpl) was 1 and the AC50 ([4]; primary qHTS, agonist mode, 24 h, top concentration 92 μM, read-out: GH3-TRE-Ag AC50) was 12.4 µM. The “EMax (% of Control) gh3-tre-agonist-followup-1_agonist” value [5] was 19.9 % of Control, the AC50 ([5]; confirmation, agonist mode, read-out: GH3-TRE-Ag-Followup AC50) was 8.59 µM and the GH3-TRE-Ag-Followup hitc ([5]; hit call from tcpl) was 0. The AC50 was > 92 µM, the AC50 ([6]; HEK 293T one-hybrid, agonist mode, read-out: TRb-bla-Ag AC50) was > 92 µM and the TRb-bla hitc ([6]; hit call from tcpl, agonist) was 0. The AC50 ([7]; cell-free coactivator recruitment, read-out: TRa-coa-Ag AC50) was > 92 µM, the TRa-coa hitc ([7]; hit call from tcpl, agonist) was 0 and the Emax ([7]; read-out: EMax (% of Control) tra-coa-agonist-followup-1) was -0.4%. For the same compound, the AC50 ([8]; cell-free coactivator recruitment, read-out: TRb-coa-Ag AC50) was > 92 µM, the TRb-coa hitc ([8]; hit call from tcpl, agonist) was 0 and the Emax ([8]; read-out: EMax (% of Control) trb-coa-agonist-followup-1) was -0.125%.
